Assays:
[1] = system: isolated rat kidney mitochondria; experiment: O2 consumption of isolated rat kidney mitochondria (Oxygraph); format: biochemical
Protocol: Fresh mitochondria were isolated from rat kidney as described previously. Electron flux was measured by O2 consumption (Oxygraph Clark electrode) as previously described using different substrates for C1 (glutamate/malate), C2 (succinate), and C3 (TMPD/ascorbate). Assays were carried out under low substrate conditions in order to avoid saturating the enzyme reactions. ATP production in isolated mitochondria was determined kinetically using the luciferase method (Biotherma) in a 96-well luminescence plate reader (Molecular Devices). The initial maximal rate for ATP synthesis was determined over the first minute.
Oxygen consumption of isolated rat kidney mitochondria was determined using the Oxygraph (FIG. 5). Rates of respiration were measured in the presence of different concentrations of SS-31 in state 2 (400 μM ADP only), state 3 (400 μM ADP and 500 μM substrates) and state 4 (substrates only). All experiments were done in triplicate with n=4-7.
SS-20 or SS-31 was added at 100 μM concentrations to isolated mitochondria in respiration buffer containing 0.5 mM succinate (complex II substrate) and 400 μM ADP. Similar increases in O2 consumption were observed when low concentrations of complex I substrates (glutamate/malate) were used (data not shown).
SS-20 or SS-31 was added at 10 μM or 100 μM concentrations to isolated mitochondria in respiration buffer containing glutamate/malate (complex I substrate), 0.5 mM succinate (complex II substrate) or 3 μM TMPD/1 mM ascorbate (direct reductant of cyt C). 400 μM ADP was added to initiate State 3 respiration.

cytochrome c-CL complex = cytochrome c-CL complex (Homo sapiens, UniProt P99999); experiment: Cytochrome c/CL peroxidase activity (amplex red); format: biochemical
From the text: The six coordination of the heme in cytochrome c prevents direct interaction of H2O2 with the catalytic metal site, and native cytochrome c in solution is a poor peroxidase. Upon interaction with CL, cytochrome c undergoes a structural change with rupture of the Fe-Met80 coordination. […] The mechanism of action of cytochrome c peroxidase is similar to that of other peroxidases, such as horse radish peroxidase (HRP). Thus it is possible to use the amplex red-HRP reaction to investigate cytochrome c peroxidase activity. In the presence of peroxidase, amplex red (AR) reacts with H2O2 to form the red-fluorescent oxidation product, resorufin (Ex/Em=571/585).
Cytochrome c (2 μM) was mixed with CL (25 μg/ml) and 10 μM H2O2 in 20 mM HEPES, pH 7.4. Amplex red (50 μM) was then added and fluorescence emission monitored in real time using Hitachi F4500 fluorescence spectrophotometer. Addition of amplex red elicited rapid increase in fluorescence signal due to resorufin formation, providing direct evidence for peroxidase activity of cytochrome c/CL complex (FIG. 29A).

cyt c = cyt c (Homo sapiens, UniProt P99999); experiment: Photoluminescence of cyt c (532.8 nm laser excitation); details: excitation 532.8 nm
From the text: A light source 140, such as a laser or light-emitting diode (LED), illuminates the doped cyt c layer 110 at an excitation wavelength, such as 532.8 nm. […] (As understood by those skilled in the art, the gap between the valence band and the excited state is […] to the excitation wavelength.) After a short relaxation time, the electron decays from the excited state to a conduction band. When the electron relaxes to valence band from the conduction band, the doped cyt c layer 110 emits a photon at a luminescence wavelength, such as 650 nm, fixed by the gap between the valence and conduction bands.
Thus, as the aromatic-cationic peptide or aromatic-cationic peptide/cardiolipin or cardiolipin concentration in the doped cyt c layer 110 varies due to changes in the pH and/or temperature of the test substrate 130, the intensity at the luminescence wavelength varies as well. Detecting this change in intensity with a photodetector 150 yields an indication of the pH and/or temperature of the test substrate 130.
Photoluminescence (PL) was carried out to examine the effects of SS-31 on the electronic structure of conduction band of the heme of cyt c, an energy state responsible for electronic transport (FIG. 3). A […] laser (532.8 nm) was used to excite electrons in cyt c (FIG. 2A). Strong PL emission in cyt c state can be clearly identified at 650 nm (FIG. 2B).

cytochrome c = cytochrome c (Homo sapiens, UniProt P99999); experiment: Cytochrome c reduction monitored by absorption spectroscopy (glutathione or NAC as reducing agent); format: biochemical
Protocol: Cytochrome c reduction: increasing amounts of aromatic-cationic peptides were added to a solution of oxidized cyt c. The formation of reduced cyt c was monitored by absorbance at […]. The rate of cyt c reduction was determined by non-linear analysis (Prizm software).
Time-resolved UV-Visible absorption spectroscopy was used to study the electron transport process of cyt c in the presence of peptides. Reduced cyt c was monitored by absorbance at a broad-band spectral range (200-1100 nm). The absorption changes were recorded with a UV/Visible spectrophotometer (Ultrospec 3300 pro, GE) in quartz cells with path lengths of 1 or 2 mm. N-acetylcysteine (NAC) and glutathione were used as electron donors to reduce oxidized cyt c. The rate constant of cyt c reduction was estimated by adding various concentrations of peptides. The dose dependence of the peptides was correlated to the cyt c reduction kinetics.
Absorption spectroscopy (UltroSpec 3300 Pro; 220-1100 nm) was used to determine if SS-31 modulates cyt c reduction (FIG. 1). Reduction of cyt c with glutathione is associated with multiple shifts in the Q band (450-650 nm), with a prominent shift at 550 nm.
Reduction of cyt c was monitored by increase in absorbance at 550 nm. […] Similar results were obtained using N-acetylcysteine (NAC) as a reducing agent (not shown).

cytochrome c, sequence (P99999 2-105 limits assumed, species assumed): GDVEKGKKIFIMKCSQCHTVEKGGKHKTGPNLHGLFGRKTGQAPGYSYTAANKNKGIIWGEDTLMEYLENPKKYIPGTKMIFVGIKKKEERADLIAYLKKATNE
cytochrome c-CL complex, sequence (P99999 2-105 limits assumed, species assumed, one chain of several): as the sequence (P99999 2-105 limits assumed, species assumed) above
cyt c, sequence (P99999 2-105 limits assumed, species assumed): as above

## D-Arg-2′6′Dmt-Lys-Phe-NH2 [SS-31]
[1]; glutamate/malate, succinate or TMPD/ascorbate, 400 μM ADP, FIG. 26
  O2 consumption in state 3 respiration: increased O2 consumption in state 3 respiration
[1]; peptide 10 μM or 100 μM, complex I, complex II substrate or TMPD/ascorbate, FIG. 26
  electron flux, as measured by O2 consumption: can promote electron flux
[1]; peptide 100 μM, 0.5 mM succinate, 400 μM ADP, FIG. 14
  electron flux, as measured by O2 consumption: can promote electron flux
[1]; state 2, state 3 and state 4, different concentrations, FIG. 5
  electron transfer to oxygen (rates of respiration): promoted electron transfer to oxygen without uncoupling mitochondria
Cytochrome c-CL complex; FIG. 29B
  kinetics of cytochrome c peroxidase activity: dose-dependently reduced the kinetics of cytochrome c peroxidase activity
Cytochrome c-CL complex; cytochrome c 2 μM, CL 25 μg/ml, 10 μM H2O2, amplex red 50 μM, FIG. 29A
  rate of amplex red peroxidation: decreased the rate of amplex red peroxidation
Cytochrome c-CL complex; figure legend FIG. 29A-C, comparison at a fixed concentration of 10 μM (FIG. 29C)
  peroxidase activity in cytochrome c/CL complex: preventing peroxidase activity in cytochrome c/CL complex
Cyt c
  PL intensity of cyt c at 650 nm: increased dose-dependently
Cytochrome c; N-acetylcysteine as reducing agent
  rate of NAC-induced cyt c reduction: dose-dependently increased the rate of NAC-induced cyt c reduction
Cytochrome c; absorbance at 550 nm, FIG. 13
  kinetics of cyt c reduction induced by glutathione (GSH): can accelerate the kinetics of cyt c reduction
Cytochrome c; peptide alone at 100 μM
  cyt c reduction by peptide alone: did not reduce cyt c
Cytochrome c; reduction of cyt c with glutathione, FIG. 1A
  spectral weight shift at 550 nm of cyt c: significant spectral weight shift at 550 nm
Cytochrome c; time-dependent spectroscopy, FIG. 1B
  rate of cyt c reduction: increased the rate of cyt c reduction
